Source: patent US6762170B1, “2-(purin-9-yl)-tetrahydrofuran-3,4-diol derivatives” (SmithKlineBeecham Corporation, priority 1998, dated 2004)
Where a name gives a salt, the structure may show the parent alone.

What was measured:
Assay type in all cases: cell-based
Adenosine 2a receptor = molecular target: T1, Adenosine 2a receptor (Homo sapiens, UniProt P29274); test: Agonist activity against adenosine 2a receptor subtype (CHO cells, cAMP response element/SPAP reporter); settings: EC50 ratio to NECA; transfected CHO cells, basal cAMP reflected by SPAP
T1 construct: expressed in transfected cells; host or cells: Chinese hamster ovary (CHO) cells, co-transfected with a CRE-SPAP reporter
Experimental: (§1) (1) Agonist Activity Against Adenosine 2a, Adenosine 1 and Adenosine 3 Receptor Subtypes.
(§2) Agonist selectivity of compounds against other human adenosine receptors is determined using Chinese hamster ovary (CHO) cells transfected with the gene for the relevant human adenosine receptor following a method based on that of Castanon and Spevak, 1994. The CHO cells are also transfected with cyclic AMP response elements promoting the gene for secreted placental alkaline phosphatase (SPAP) (Wood, 1995). The effect of test compounds may be determined by their effects on basal levels of cAMP (A2a) or on forskolin-enhanced cAMP (A1 and A3) as reflected by changes in levels of SPAP. EC50 values for compounds may then be determined as a ratio to that of the non-selective agonist N-ethyl carboxamide adenosine (NECA).
(§3) Values given in the Table are EC50 values as a ratio of that of NECA.

Adenosine 1 receptor = molecular target: T2, Adenosine 1 receptor (Homo sapiens, UniProt P30542); test: Agonist activity against adenosine 1 receptor subtype (CHO cells, forskolin-enhanced cAMP, SPAP reporter); settings: EC50 ratio to NECA; transfected CHO cells, forskolin-enhanced cAMP reflected by SPAP
T2 construct: expressed in transfected cells; host or cells: Chinese hamster ovary (CHO) cells, co-transfected with a CRE-SPAP reporter
T2 sequence (P30542 1-326): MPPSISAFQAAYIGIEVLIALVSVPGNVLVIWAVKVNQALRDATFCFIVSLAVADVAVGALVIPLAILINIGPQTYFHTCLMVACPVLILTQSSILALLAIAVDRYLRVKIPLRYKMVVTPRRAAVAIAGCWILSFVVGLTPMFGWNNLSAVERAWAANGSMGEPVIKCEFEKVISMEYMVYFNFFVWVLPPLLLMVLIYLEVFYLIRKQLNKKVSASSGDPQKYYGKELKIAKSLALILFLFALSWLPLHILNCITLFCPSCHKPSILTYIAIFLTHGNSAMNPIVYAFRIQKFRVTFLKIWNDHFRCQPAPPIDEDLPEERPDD
Experimental: as §1, §2, §3

Adenosine 3 receptor = molecular target: T3, Adenosine 3 receptor (Homo sapiens, UniProt P0DMS8); test: Agonist activity against adenosine 3 receptor subtype (CHO cells, forskolin-enhanced cAMP, SPAP reporter); settings: EC50 ratio to NECA; transfected CHO cells, forskolin-enhanced cAMP reflected by SPAP
T3 construct: expressed in transfected cells; host or cells: Chinese hamster ovary (CHO) cells, co-transfected with a CRE-SPAP reporter
T3 sequence (P0DMS8 1-318): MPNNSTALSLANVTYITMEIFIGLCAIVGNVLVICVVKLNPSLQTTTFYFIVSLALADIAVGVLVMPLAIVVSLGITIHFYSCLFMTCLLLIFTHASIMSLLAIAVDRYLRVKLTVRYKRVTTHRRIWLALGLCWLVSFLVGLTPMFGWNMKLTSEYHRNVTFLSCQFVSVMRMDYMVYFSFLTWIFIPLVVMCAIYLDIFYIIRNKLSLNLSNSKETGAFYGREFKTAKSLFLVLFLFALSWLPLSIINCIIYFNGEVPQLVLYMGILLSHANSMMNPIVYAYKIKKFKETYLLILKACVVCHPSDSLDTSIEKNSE
Experimental: as §1, §2, §3

T1 sequence (P29274 whole entry): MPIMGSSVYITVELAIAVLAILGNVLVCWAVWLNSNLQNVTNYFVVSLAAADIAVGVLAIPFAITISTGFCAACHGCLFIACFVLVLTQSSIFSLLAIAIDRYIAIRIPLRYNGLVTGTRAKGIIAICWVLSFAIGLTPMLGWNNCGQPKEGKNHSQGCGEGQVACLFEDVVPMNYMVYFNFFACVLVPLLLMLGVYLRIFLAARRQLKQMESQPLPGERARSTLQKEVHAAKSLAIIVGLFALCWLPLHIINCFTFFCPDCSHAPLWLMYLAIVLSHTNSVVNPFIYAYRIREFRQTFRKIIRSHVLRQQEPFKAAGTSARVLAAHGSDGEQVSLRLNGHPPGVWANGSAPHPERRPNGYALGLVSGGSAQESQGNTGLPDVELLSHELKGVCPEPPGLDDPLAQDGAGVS

Structure (SMILES) | A2a (EC50 values as a ratio of that of NECA) (Adenosine 2a receptor) | A1 (EC50 values as a ratio of that of NECA) (Adenosine 1 receptor) | A3 (EC50 values as a ratio of that of NECA) (Adenosine 3 receptor)
CCc1cc([C@H]2O[C@@H](n3cnc4c(NC(CC)CC)nc(NCCN5CCCCC5)nc43)[C@H](O)[C@@H]2O)on1.O=CO.O=CO [Example 6, (2S,3S,4R,5R)-2-(3-Ethyl-isoxazol-5-yl)-5-[6-(1-ethyl-propylamino)-2-(2-piperidin-1-yl-ethylamino)-purin-9-yl]-tetrahydro-furan-3,4-diol diformate] | 0.49 | 66.4 | >393
CCc1cc(C2OC(n3cnc4c(NC(CC)CC)nc(NCCNC(=N)N)nc43)C(O)C2O)on1 (stereo not drawn) [Example 40, N-{2-[9-[5S-(3-Ethyl-isoxazol-5-yl)-3R,4S-dihydroxy-tetrahydro-furan-2R-yl]6-(1-ethyl-propylamino)-9H-purin-2-ylamino]-ethyl}-guanidine diformate] | 3.38 | 70.53 | >88
CCc1cc(C2OC(n3cnc4c(NC5CCCC5)nc(NCCN5CCCCC5)nc43)C(O)C2O)on1 [Example 8, (2S,3S,4R,5R)-2-(3-Ethyl-isoxazol-5-yl)-5-[6-(cyclopentylamino)-2-(2-piperidin-1-yl)-ethylamino)-purin-9-yl]-tetrahydro-furan-3,4-diol diformate] | 0.67 | 49.1 | >310
CCc1cc(C2OC(n3cnc4c(NCC(c5ccccc5)c5ccccc5)nc(NC(CO)Cc5ccccc5)nc43)C(O)C2O)on1 [Example 17, (2R,3R,4S,5S)-2-[6-(2,2-Diphenyl-ethylamino)-2-(1S-hydroxymethyl-2-phenyl-ethylamino)-purin-9-yl]-5-(3-ethyl-isoxazol-5-yl)-tetrahydro-furan-3,4-diol formate] | 0.34 | 1172 | >298
CCc1cc([C@H]2O[C@@H](n3cnc4c(NC(CC)CC)nc(NC5CCOCC5)nc43)[C@H](O)[C@@H]2O)on1.O=CO [Example 48, (2R,3R,4S,5S)-2-[2-(4-tetrahydropyranyl-amino)-6-(1-ethyl-propylamino)-purin-9-yl]-5-(3-ethyl-isoxazol-5-yl)-tetrahydro-furan-3,4-diol formate] | 11.48 | 177.71 | >363
CCc1cc(C2OC(n3cnc4c(NC(CO)Cc5ccccc5)nc(NCCN5CCOCC5)nc43)C(O)C2O)on1 [Example 51, (2S,3S,4R,5R)-2-(3-Ethyl-isoxazol-5-yl)-5-[6-(1S-hydroxymethyl-2-phenyl-ethylamino)-2-(2-morpholin-4-yl-ethylamino)-purin-9-yl]-tetrahydro-furan-3,4-diol diformate] | 4.86 | 22.53 | >340
CCc1cc(C2OC(n3cnc4c(NCC(c5ccccc5)c5ccccc5)nc(NCCN5CCOCC5)nc43)C(O)C2O)on1 [Example 2, (2R,3R,4S,5S)-2-[6-(2,2-Diphenyl-ethylamino)-2-(2-morpholin-4-yl-ethylamino)-purin-9-yl]-5-(3-ethyl-isoxazol-5-yl)-tetrahydro-furan-3,4-diol diformate.] | 0.43 | 88.9 | >545
CCC(CC)Nc1nc(NCCN2CCCCC2)nc2c1ncn2C1OC(c2cc(C)no2)C(O)C1O.O=CO.O=CO [Example 55, (2R,3R,4S,5S)-2-[6-(1-Ethyl-propylamino)-2-(2-piperidin-1-yl-ethylamino)-purin-9-yl]-5-(3-methyl-isoxazol-5-yl)-tetrahydro-furan-3,4-diol diformate] | 0.175 | 155.3 | >353
CCc1cc(C2OC(n3cnc4c(NC5CCS(=O)(=O)CC5)nc(NC5CCC(N)CC5)nc43)C(O)C2O)on1 [Example 32, (2R,3R,4S,5S)-2-[2-trans-4-Amino-cyclohexylamino)-6-(1-dioxo-hexahydro-1λ6-thiopyran-4-ylamino)-purin-9-yl]-5-(3-ethyl-isoxazol-5-yl)-tetrahydro-furan-3,4-diol diformate] | 3.79 | 31.75 | >176
CCc1cc(C2OC(n3cnc4c(NC5CCS(=O)(=O)CC5)nc(NCCNC(=N)N)nc43)C(O)C2O)on1 (stereo not drawn) [Example 26, N-(2-{6-(1,1-Dioxo-hexahydro-1λ6-thiopyran-4-ylamino)-9-[5S-(3-ethyl-isoxazol-5-yl)-3R ,4S-dihydroxy-tetrahydro-furan-2R-yl]-9H-purin-2-ylamino}-ethyl)-guanidine diformate] | 6.89 | 273.3 | >286

More lines, now with the values ahead:

A2a (EC50 values as a ratio of that of NECA) (Adenosine 2a receptor) | A1 (EC50 values as a ratio of that of NECA) (Adenosine 1 receptor) | A3 (EC50 values as a ratio of that of NECA) (Adenosine 3 receptor) | Structure (SMILES)
12.75 | 79.51 | >184 | CCc1cc(C2OC(n3cnc4c(NC(CO)C(C)C)nc(NCCNc5ccccn5)nc43)C(O)C2O)on1 [Example 71, (2S,3S,4R,5R)-2-(3-Ethyl-isoxazol-5-yl)-5-{6-(1S-hydroxymethyl-2-methyl-propylamino)-2-[2-(pyridin-2-ylamino)-ethylamino]-purin-9-yl}-tetrahydro-furan-3,4-diol diformate]
5.19 | 101.31 | >525 | CCCc1cc(C2OC(n3cnc4c(NC(CC)CC)nc(NCCN5CCCCC5)nc43)C(O)C2O)on1.O=CO.O=CO [Example 56, (2R,3R,4S,5S)-2-[6-(1-Ethyl-propylamino)-2-(2-piperidin-yl-ethylamino)-purin-9-yl]-5-(3-propyl-isoxazol-5-yl)-tetrahydro-furan-3,4-diol diformate]
10.57 | 148.43 | >262 | CCc1cc(C2OC(n3cnc4c(NC(CO)Cc5ccccc5)nc(NCCN5CCCC5)nc43)C(O)C2O)on1 [Example 63, (2S,3S,4R,5R)-2-(3-Ethyl-isoxazol-5-yl)-5-[6-(1S-hydroxymethyl-2-phenyl-ethylamino)-2-(2-pyrrolidin-1-yl-ethylamino)-purin-9-yl]-tetrahydro-furan-3,4-diol diformate]
0.79 | 80.76 | >525 | CCC(CC)Nc1nc(NCCN2CCCCC2)nc2c1ncn2C1OC(c2cc(CO)no2)C(O)C1O.O=CO.O=CO [Example 57, (2R,3R,4S,5S)-2-[6-(1-Ethyl-propylamino)-2-(2-piperidin-1-yl-ethylamino)-purin-9-yl]-5-(3-hydroxymethyl-isoxazol-5-yl)-tetrahydro-furan-3,4-diol diformate]
23.73 | 298.75 | >180 | CCc1cc(C2OC(n3cnc4c(NC(CO)C(C)C)nc(NCCN5CCCC5)nc43)C(O)C2O)on1 [Example 69, (2S,3S,4R,5R)-2-(3-Ethyl-isoxazol-5-yl)-5-[6-(1S-hydroxymethyl-2-methyl-propylamino)-2-(2-pyrrolidin-1-yl-ethylamino)-purin-9-yl]-tetrahydro-furan-3,4-diol diformate]
